The source of these data is PMC11887051, “Discovery of ONO-2920632 (VU6011887): A Highly Selective and CNS Penetrant TREK-2 (TWIK-Related K+ Channel 2) Preferring Activator In Vivo Tool Compound” (ACS Chemical Neuroscience, 2025).

SMILES strings stand for the structures.

For orientation: EC50 means the concentration that produces a half-maximal response. Lower therefore signals higher potency in that assay. For orientation: Emax means the maximal effect, on the per cent scale that the assay sets. The % Inhibition is the relative decrease from the control value, in per cent. The inhibition is the drop in the measured response relative to a control, in per cent. For orientation: IC50 means the concentration that inhibits the measured activity by half.

Test [1] addresses T1, TREK-1 (Homo sapiens, UniProt O95069).
T1 sequence (O95069 1-426): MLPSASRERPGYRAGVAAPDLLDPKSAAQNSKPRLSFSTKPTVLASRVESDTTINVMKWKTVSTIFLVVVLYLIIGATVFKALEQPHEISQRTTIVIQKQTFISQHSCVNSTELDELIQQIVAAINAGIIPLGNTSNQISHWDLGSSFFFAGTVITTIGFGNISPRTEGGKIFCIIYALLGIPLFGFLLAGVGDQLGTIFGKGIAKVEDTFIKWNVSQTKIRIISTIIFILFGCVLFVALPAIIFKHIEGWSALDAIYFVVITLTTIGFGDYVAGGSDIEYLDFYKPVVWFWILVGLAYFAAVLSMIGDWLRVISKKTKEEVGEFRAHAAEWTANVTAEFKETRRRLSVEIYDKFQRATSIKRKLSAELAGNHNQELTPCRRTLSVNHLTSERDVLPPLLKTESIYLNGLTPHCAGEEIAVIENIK
Description: manual patch clamp (MPC) assay, TREK-1, species not stated. The class given is cell-based. (In general: The patch-clamp technique gives a direct electrical read-out from membranes.)

The subject of test [2] is Purinergic P2X. In words: Eurofins Lead Profiling radioligand binding. Set-up: species or system Rabbit. The settings on record: title: 30 μM.
In test [3] the target is Neuropeptide Y Y1 (Homo sapiens, UniProt P25929). In words: Eurofins Lead Profiling radioligand binding. The note with it: title: 30 μM.
The target in test [4] is Bradykinin B1 (Homo sapiens, UniProt P46663). In words: Eurofins Lead Profiling radioligand binding. The note with it: title: 30 μM.
Sequence of Bradykinin B1 (P46663 whole entry): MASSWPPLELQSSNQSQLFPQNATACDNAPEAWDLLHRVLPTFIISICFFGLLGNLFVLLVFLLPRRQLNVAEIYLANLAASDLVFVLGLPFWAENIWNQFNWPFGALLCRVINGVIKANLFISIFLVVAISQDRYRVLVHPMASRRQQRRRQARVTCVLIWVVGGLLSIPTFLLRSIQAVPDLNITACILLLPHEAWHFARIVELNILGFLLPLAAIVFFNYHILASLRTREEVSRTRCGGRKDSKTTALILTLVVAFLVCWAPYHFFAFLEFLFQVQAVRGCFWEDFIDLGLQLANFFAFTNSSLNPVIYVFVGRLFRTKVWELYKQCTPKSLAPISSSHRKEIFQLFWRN
Test [5] addresses Adrenergic β2 (Homo sapiens, UniProt P07550). In words: Eurofins Lead Profiling radioligand binding. The note with it: title: 30 μM.
The target in test [6] is Transporter, Serotonin (SERT) (Homo sapiens, UniProt P31645). In words: Eurofins Lead Profiling radioligand binding. The note with it: title: 30 μM.
Sequence of Transporter, Serotonin (SERT) (P31645 whole entry): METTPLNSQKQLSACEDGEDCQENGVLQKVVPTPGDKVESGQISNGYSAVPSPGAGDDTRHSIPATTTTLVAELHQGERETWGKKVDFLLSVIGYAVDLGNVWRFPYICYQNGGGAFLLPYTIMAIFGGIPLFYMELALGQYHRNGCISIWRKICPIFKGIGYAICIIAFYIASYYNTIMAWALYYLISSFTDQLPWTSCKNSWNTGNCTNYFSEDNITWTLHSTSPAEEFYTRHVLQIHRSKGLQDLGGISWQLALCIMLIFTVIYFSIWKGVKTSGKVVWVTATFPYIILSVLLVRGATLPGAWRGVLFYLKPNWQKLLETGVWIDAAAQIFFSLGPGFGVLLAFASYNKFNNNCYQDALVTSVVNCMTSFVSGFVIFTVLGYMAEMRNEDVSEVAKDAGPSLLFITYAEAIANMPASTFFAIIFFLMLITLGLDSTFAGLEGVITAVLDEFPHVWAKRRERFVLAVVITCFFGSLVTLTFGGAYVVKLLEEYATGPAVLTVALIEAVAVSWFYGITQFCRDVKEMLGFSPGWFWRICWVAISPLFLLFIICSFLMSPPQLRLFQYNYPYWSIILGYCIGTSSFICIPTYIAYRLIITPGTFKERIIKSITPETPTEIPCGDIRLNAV
Test [7] addresses Transporter, GABA (Rattus norvegicus, UniProt P23978). In words: Eurofins Lead Profiling radioligand binding. The note with it: title: 30 μM.
In test [8] the target is Adenosine A2A (Homo sapiens, UniProt P29274). Description: Eurofins Lead Profiling radioligand binding. The settings on record: title: 30 μM.
The test system of test [9] is Rolipram. Description: Eurofins Lead Profiling radioligand binding. Set-up: species or system Rat. The note with it: title: 30 μM.
Test [10] addresses Nicotinic Acetylcholine α3β4 (Homo sapiens, UniProt P30926+P32297). Description: Eurofins Lead Profiling radioligand binding. The settings on record: title: 30 μM.
Test [11] addresses Serotonin (5-HT3) (Homo sapiens, UniProt P46098). In words: Eurofins Lead Profiling radioligand binding. The note with it: title: 30 μM.
In test [12] the target is Adrenergic α1D (Homo sapiens, UniProt P25100). In words: Eurofins Lead Profiling radioligand binding. The note with it: title: 30 μM.
Test [13] has as its target Serotonin (5-HT1A) (Homo sapiens, UniProt P08908). Description: Eurofins Lead Profiling radioligand binding. The settings on record: title: 30 μM.
Test [14] deals with GABAA, Muscimol, Central. In words: Eurofins Lead Profiling radioligand binding. Set-up: species or system Rat. The note with it: title: 30 μM.
Test [15] addresses Adrenergic β1 (Homo sapiens, UniProt P08588). In words: Eurofins Lead Profiling radioligand binding. The note with it: title: 30 μM.
Test [16] addresses Adrenergic α1B (Rattus norvegicus, UniProt P15823). Description: Eurofins Lead Profiling radioligand binding. The settings on record: title: 30 μM.
Test [17] deals with Calcium Channel L-Type, Benzothiazepine. Description: Eurofins Lead Profiling radioligand binding. Set-up: species or system Rat. The note with it: title: 30 μM.
Test [18] concerns Calcium Channel L-Type, Dihydropyridine. In words: Eurofins Lead Profiling radioligand binding. Set-up: species or system Rat. The settings on record: title: 30 μM.
For test [19], the system named is Phorbol Ester. Description: Eurofins Lead Profiling radioligand binding. Set-up: species or system Mouse. The settings on record: title: 30 μM.
For test [20], the target named is Serotonin (5-HT2B) (Homo sapiens, UniProt P41595). Description: Eurofins Lead Profiling radioligand binding. The note with it: title: 30 μM.
Test [21] concerns the target Histamine H1 (Homo sapiens, UniProt P35367). In words: Eurofins Lead Profiling radioligand binding. The note with it: title: 30 μM.
Test [22] has as its target T1, TREK-1. Description: human 86Rb flux K2P selectivity panel. The class given is cell-based. The note with it: data is not shown.
For test [23], the target named is Dopamine D1 (Homo sapiens, UniProt P21728). In words: Eurofins Lead Profiling radioligand binding. The settings on record: title: 30 μM.
Test [24] has as its system 72 GPCRs, ion channels and transporters. In words: Eurofins Lead Profiling panel (whole panel). The settings on record: for ancillary pharmacology panel result: 72 GPCRs, ion channels and transporters. The class given is binding.
Test [25] addresses Adenosine A3 (Homo sapiens, UniProt P0DMS8). Description: Eurofins Lead Profiling radioligand binding. The settings on record: title: 30 μM.
For test [26], the system named is Potassium Channel [KATP]. In words: Eurofins Lead Profiling radioligand binding. Set-up: species or system Hamster. The settings on record: title: 30 μM.
The subject of test [27] is Glutamate, NMDA, Agonism. In words: Eurofins Lead Profiling radioligand binding. The note with it: title: 30 μM. Set-up: species or system Rat.
For test [28], the target named is Dopamine D4.2 (Homo sapiens, UniProt P21917, DEL265-296). Description: Eurofins Lead Profiling radioligand binding. The settings on record: title: 30 μM.
Sequence of Dopamine D4.2 (P21917 with tags, fused parts or gaps DEL265-296): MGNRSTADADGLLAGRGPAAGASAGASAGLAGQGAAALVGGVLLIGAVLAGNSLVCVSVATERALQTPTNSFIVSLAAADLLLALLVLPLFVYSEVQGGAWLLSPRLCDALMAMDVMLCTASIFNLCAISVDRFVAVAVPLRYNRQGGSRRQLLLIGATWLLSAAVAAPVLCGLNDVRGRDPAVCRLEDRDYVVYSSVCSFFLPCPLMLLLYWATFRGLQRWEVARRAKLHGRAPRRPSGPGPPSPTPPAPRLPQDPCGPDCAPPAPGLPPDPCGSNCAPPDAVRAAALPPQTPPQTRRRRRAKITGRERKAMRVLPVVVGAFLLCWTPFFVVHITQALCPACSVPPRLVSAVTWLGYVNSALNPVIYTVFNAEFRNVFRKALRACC
Test [29] has as its target Leukotriene, Cysteinyl CysLT1 (Homo sapiens, UniProt Q9Y271). Description: Eurofins Lead Profiling radioligand binding. The note with it: title: 30 μM.
Test [30] concerns Ryanodine. In words: Eurofins Lead Profiling radioligand binding. Set-up: species or system Rat. The settings on record: title: 30 μM.
Test [31] has as its target Adrenergic α1A (Rattus norvegicus, UniProt P43140). In words: Eurofins Lead Profiling radioligand binding. The settings on record: title: 30 μM.
For test [32], the system named is Imidazoline I2, Central. Description: Eurofins Lead Profiling radioligand binding. Set-up: species or system Rat. The note with it: title: 30 μM.
Test [33] deals with Vanilloid (Rattus norvegicus, UniProt O35433). In words: Eurofins Lead Profiling radioligand binding. The note with it: title: 30 μM.
Test [34] concerns the target Dopamine D3 (Homo sapiens, UniProt P35462). In words: Eurofins Lead Profiling radioligand binding. The note with it: title: 30 μM.
The target of test [35] is Histamine H3 (Homo sapiens, UniProt Q9Y5N1). In words: Eurofins Lead Profiling radioligand binding. The note with it: title: 30 μM.
Test [36] addresses T1, TREK-1. In words: human TREK-1 MPC assay. It is filed as cell-based. Set-up: host or cells: CHO.
Test [37] deals with T2, hERG (Homo sapiens, UniProt Q12809).
T2 construct: expressed in transfected cells; host or cells: HEK293
In words: hERG thallium flux assay. The class given is cell-based. The note with it: Tl+ flux assay. In general terms: The hERG channel carries a current that helps repolarise heart muscle cells.

Sequence of Dopamine D3 (P35462 whole entry): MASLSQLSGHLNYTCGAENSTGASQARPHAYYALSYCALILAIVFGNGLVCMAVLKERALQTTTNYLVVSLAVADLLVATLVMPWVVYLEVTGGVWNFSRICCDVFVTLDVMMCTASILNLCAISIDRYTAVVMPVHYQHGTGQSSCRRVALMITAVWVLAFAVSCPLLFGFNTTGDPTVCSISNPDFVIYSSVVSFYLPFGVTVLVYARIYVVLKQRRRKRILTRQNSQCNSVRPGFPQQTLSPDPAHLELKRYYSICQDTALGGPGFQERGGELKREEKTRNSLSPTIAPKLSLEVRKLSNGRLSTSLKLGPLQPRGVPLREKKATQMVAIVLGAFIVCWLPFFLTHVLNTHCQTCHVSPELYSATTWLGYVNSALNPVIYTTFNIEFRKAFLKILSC
Sequence of Adrenergic β1 (P08588 whole entry): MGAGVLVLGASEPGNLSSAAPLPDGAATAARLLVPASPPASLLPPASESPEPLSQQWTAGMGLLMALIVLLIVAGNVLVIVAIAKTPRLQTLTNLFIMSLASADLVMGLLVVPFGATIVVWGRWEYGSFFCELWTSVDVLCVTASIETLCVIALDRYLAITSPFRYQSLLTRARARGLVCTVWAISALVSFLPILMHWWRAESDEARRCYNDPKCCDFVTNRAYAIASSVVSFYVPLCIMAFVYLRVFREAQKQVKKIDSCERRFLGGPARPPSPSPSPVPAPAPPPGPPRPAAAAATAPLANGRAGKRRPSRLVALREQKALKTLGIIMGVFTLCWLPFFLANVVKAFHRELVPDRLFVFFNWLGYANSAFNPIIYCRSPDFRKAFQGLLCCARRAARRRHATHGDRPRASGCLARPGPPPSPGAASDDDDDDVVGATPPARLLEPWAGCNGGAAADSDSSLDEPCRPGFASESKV
Sequence of Adrenergic β2 (P07550 whole entry): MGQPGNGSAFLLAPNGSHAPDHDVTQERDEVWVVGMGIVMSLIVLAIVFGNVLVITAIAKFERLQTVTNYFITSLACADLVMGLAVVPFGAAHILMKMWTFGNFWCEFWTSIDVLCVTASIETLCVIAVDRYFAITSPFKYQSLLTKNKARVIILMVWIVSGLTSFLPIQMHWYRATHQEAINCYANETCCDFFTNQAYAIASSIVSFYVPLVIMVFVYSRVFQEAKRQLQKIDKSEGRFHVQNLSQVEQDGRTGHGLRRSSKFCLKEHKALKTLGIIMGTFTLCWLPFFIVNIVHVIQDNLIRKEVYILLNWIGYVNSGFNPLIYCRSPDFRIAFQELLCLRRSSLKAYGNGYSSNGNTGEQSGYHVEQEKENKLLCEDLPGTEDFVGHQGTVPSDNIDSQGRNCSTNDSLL
Sequence of Adenosine A3 (P0DMS8 whole entry): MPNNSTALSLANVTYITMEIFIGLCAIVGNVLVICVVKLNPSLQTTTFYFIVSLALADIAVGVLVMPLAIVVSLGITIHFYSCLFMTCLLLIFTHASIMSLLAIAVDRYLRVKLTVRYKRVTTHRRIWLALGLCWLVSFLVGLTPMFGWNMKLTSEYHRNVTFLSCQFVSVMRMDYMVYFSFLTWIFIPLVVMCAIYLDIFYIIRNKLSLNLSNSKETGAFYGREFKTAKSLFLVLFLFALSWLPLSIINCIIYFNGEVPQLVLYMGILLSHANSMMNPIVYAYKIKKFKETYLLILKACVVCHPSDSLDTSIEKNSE
Sequence of Serotonin (5-HT1A) (P08908 whole entry): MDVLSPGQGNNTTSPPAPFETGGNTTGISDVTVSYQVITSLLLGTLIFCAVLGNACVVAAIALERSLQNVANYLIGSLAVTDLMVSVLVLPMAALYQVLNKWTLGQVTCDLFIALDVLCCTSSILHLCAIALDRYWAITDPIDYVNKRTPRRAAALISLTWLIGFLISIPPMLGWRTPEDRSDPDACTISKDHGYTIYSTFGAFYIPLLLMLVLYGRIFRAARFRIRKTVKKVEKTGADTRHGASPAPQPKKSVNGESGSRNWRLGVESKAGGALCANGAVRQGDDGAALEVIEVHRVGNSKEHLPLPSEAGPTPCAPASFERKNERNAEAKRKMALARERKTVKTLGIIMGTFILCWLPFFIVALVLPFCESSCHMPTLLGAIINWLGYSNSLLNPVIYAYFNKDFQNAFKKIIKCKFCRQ
Sequence of Serotonin (5-HT3) (P46098 24-478): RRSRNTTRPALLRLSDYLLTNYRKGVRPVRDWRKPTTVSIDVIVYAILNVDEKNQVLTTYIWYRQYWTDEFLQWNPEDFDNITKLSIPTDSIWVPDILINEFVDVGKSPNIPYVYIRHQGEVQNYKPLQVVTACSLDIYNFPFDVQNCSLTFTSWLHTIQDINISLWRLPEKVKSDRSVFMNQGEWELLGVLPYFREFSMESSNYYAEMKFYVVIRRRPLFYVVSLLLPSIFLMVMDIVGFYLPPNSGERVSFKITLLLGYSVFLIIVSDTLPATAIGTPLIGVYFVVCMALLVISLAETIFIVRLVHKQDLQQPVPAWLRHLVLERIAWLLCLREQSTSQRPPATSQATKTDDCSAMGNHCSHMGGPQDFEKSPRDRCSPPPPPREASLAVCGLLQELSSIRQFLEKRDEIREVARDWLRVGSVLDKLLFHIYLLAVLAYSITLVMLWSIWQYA
Sequence of Histamine H1 (P35367 whole entry): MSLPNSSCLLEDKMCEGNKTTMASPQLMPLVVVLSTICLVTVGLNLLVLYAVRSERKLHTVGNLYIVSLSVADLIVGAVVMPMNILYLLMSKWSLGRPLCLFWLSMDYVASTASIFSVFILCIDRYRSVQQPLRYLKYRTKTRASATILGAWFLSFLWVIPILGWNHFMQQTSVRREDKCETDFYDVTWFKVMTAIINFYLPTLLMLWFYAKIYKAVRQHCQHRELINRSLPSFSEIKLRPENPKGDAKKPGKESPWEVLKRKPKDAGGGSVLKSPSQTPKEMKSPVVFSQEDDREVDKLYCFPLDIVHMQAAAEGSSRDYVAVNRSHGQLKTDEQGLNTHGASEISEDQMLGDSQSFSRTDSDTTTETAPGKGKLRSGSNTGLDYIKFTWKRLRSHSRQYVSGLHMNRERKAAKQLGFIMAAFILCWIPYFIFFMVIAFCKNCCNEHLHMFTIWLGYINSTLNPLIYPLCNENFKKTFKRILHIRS

On to `CS(=O)(=O)Nc1ccc(C(=O)NCc2ccc(Cl)cc2Cl)cc1` [Compound 13], for which, in [1], the EC50 was determined as 7.4 µM and the Emax was 99%.

As to `O=C(NCc1ccc(OC(F)(F)F)cc1F)c1ccc2ncnn2c1` [Compound 19b], the “% Inhibition at 10 µM” value in [2] is reported as 22%; in test [9], 13%; in test [14] it was -1%; in [17], 2%; in [18], -2%; in test [19], 0%. Besides, the “% Inhibition at 10 µM” value was 13% in test [26], -3% in [27], 6% in test [30] and 2% in test [32]. The inhibition was 2% in test [3]; -12% in test [4]; 2% in [5]; 2% in test [6]; -6% in test [7]; 10% in test [8]. Further, the inhibition was -17% in test [10]; 4% in [11]; 2% in [13]; 9% in test [15]; 14% in test [20]; 8% in [21]. In addition, the inhibition was 22% in [23]; 21% in test [25]; 15% in test [28]; 5% in [29]; 2% in test [31]; -8% in [33]. For the same compound, the inhibition turned out to be 13% in test [34] and 1% in test [35]. For the same compound, the inhibition at 10 µM in test [12] was 4%; in [16], 6%. In [22], the “activity at TREK-1 in 86Rb flux panel” value is reported as “micromolar activity”. The “displacement of any radioligand in the panel” value in test [24] (30 μM, 72 targets) is reported as at most 50%. The figures for the “ancillary pharmacology panel result” value in test [24] and in test [24] (listed as ONO-2920632) were “clean ancillary pharmacology” and “no significant activity”, respectively.

Regarding `O=C(NCc1ccc(OC(F)(F)F)cc1Cl)c1ccc2nncn2c1` [Compound 20], in [36], a half-maximal effect (EC50) was put at 0.33 µM and the Emax was found to be 172%. The IC50 in test [37] was over 30 µM.
